Laboratory results published in PMC9291665, “Discovery and SAR analysis of 5-chloro-4-((substituted phenyl)amino)pyrimidine bearing histone deacetylase inhibitors” (Journal of Enzyme Inhibition and Medicinal Chemistry, 2022).

Key:
H3122 = system: H3122; parameters: method as in PMID 17185414, PMID 27144831; conditions: cited from earlier work
H2228 = system: H2228; parameters: method as in PMID 17185414, PMID 27144831; conditions: cited from earlier work
K562 cells [1] = assay: In vitro antiproliferative assay (CCK-8), K562; type: cell-based; conditions: Homo sapiens, at concentration of 1.0 µM, mean of three experiments, read-out: K562 percentage inhibitory rate
Experimental: (§1) The proliferation of cancer cells was tested by CCK-8 assay. Briefly, cells were seeded in 96-well plate with about 5 × 10^3 cells in each well. The cells were treated with tested compounds after 24 h of incubation. CCK-8 reagent ([…]) was added to each well after 72 h of incubation, and cells were incubated at 37 °C for 4 h. The light absorbance at 450 nm was measured by using an Opsys microplate reader (Dynex Technologies, Chantilly, VA, USA).

[2] = system: Hela nucleus extract containing a mixture of HDAC isoforms; assay: HDAC enzyme inhibitory screening against Hela nucleus extract; type: biochemical; conditions: at concentration of 1.0 µM, mean of three experiments
Experimental: The synthesised molecules were firstly screened against Hela nucleus extract containing a mixture of HDAC isoforms.
All HDAC enzymes were purchased from BPS Bioscience. In short, 60 µL of recombinant HDAC enzyme solution was mixed with various concentrations of test compound (40 µL), and then incubated at 37 °C for 30 minutes. The reaction was terminated by adding 100 µL of imaging agent containing trypsin and trichostatin A (TSA). After standing for 20 min, the fluorescence intensity was measured at the excitation and emission wavelengths of 360 and 460 nm with a microplate reader. The inhibition rate was calculated from the fluorescence intensity readings of the test wells relative to the control wells, and the IC50 curve and value were determined by GraphPad Prism 6.0 software.

MDA-MB-468 = assay: In vitro antiproliferative assay (CCK-8), MDA-MB-468; type: cell-based; conditions: Homo sapiens, CCK-8, 72 h
Experimental: (§2) Compound L20 with good performances in both enzyme and K562 cell inhibitory tests were selected for further antiproliferative assay against various cell lines. K562, U266, U937, C6, Fadu, MDA-MB-231, MDA-MB-468, A549, A2780 and HepG2 cell lines were used in the cell-based anticancer evaluation of L20.
as §1, with “USA). Results are illustrated as percent of cell viability normalised to DMSO-treated control cells.” for “USA).”

MDA-MB-231 = assay: In vitro antiproliferative assay (CCK-8), MDA-MB-231; type: cell-based; conditions: Homo sapiens, CCK-8, 72 h
Experimental: as §2
as §1, with “USA). Results are illustrated as percent of cell viability normalised to DMSO-treated control cells.” for “USA).”

K562 cells [3] = assay: Cell apoptosis analysis by flow cytometry (Annexin V-BV421 / 7-AAD); conditions: 24 h, control 1.14%
Experimental: Cells were incubated with Annexin V-BV421 (Becton Dickinson, USA) and 7-AAD (Becton Dickinson, USA) double labelling for 30 min in the dark at room temperature and measured by flow cytometry (FACSAriaIII, Becton Dickinson, USA). The data was analysed using Flowjo-V10 software.

| Compound | inhibition at 1 µM (K562 cells [1]) [%] | HDACs percentage inhibitory rate [2] [%] | also measured |
| --- | --- | --- | --- |
| COc1cc(N2CCC(N3CCN(C)CC3)CC2)ccc1Nc1ncc(Cl)c(Nc2ccccc2P(C)(C)=O)n1 [Brigatinib] |  |  | GI50 (H3122): 4 nM; GI50 (H2228): 10 nM |
| Cc1cc(Nc2ncc(Cl)c(Nc3ccccc3S(=O)(=O)C(C)C)n2)c(OC(C)C)cc1C1CCNCC1 [Ceritinib] |  |  | GI50 (H3122): 62 nM; GI50 (H2228): 121 nM |
| O=C(NO)c1ccc(N2CCN(c3ncc(Cl)c(Nc4ccccc4)n3)CC2)cc1 [Compound L1, 4–(4-(5-chloro-4-(phenylamino)pyrimidin-2-yl)piperazin-1-yl)-N-hydroxybenzamide] | 30.7 ± 0.32 | 50.54 ± 2.27 |  |
| Cc1ccc(Nc2nc(N3CCN(c4ccc(C(=O)NO)cc4)CC3)ncc2Cl)cc1 [Compound L2, 4–(4-(5-chloro-4-(p-tolylamino)pyrimidin-2-yl)piperazin-1-yl)-N-hydroxybenzamide] | 43.9 ± 0.81 | 47.98 ± 1.54 |  |
| CCc1ccc(Nc2nc(N3CCN(c4ccc(C(=O)NO)cc4)CC3)ncc2Cl)cc1 [Compound L3, 4–(4-(5-chloro-4-((4-ethylphenyl)amino)pyrimidin-2-yl)piperazin-1-yl)-N-hydroxybenzamide] | 19.5 ± 0.06 | 50.54 ± 0.21 |  |
| O=C(NO)c1ccc(N2CCN(c3ncc(Cl)c(Nc4ccc(F)cc4)n3)CC2)cc1 [Compound L4, 4–(4-(5-chloro-4-((4-fluorophenyl)amino)pyrimidin-2-yl)piperazin-1-yl)-N-hydroxybenzamide] | 58.2 ± 1.05 | 53.89 ± 3.35 |  |
| N#Cc1ccc(Nc2nc(N3CCN(c4ccc(C(=O)NO)cc4)CC3)ncc2Cl)cc1 [Compound L5, 4–(4-(5-chloro-4-((4-cyanophenyl)amino)pyrimidin-2-yl)piperazin-1-yl)-N-hydroxybenzamide] | 31.51 ± 0.09 | 48.33 ± 0.64 |  |
| COc1cc(Nc2nc(N3CCN(c4ccc(C(=O)NO)cc4)CC3)ncc2Cl)cc(OC)c1 [Compound L6, 4–(4-(5-chloro-4-((3,5-dimethoxyphenyl)amino)pyrimidin-2-yl)piperazin-1-yl)-N-hydroxybenzamide] | 56.6 ± 0.11 | 59.74 ± 0.03 |  |
| COc1ccc(Nc2nc(N3CCN(c4ccc(C(=O)NO)cc4)CC3)ncc2Cl)cc1OC [Compound L7, 4–(4-(5-chloro-4-((3,4-dimethoxyphenyl)amino)pyrimidin-2-yl)piperazin-1-yl)-N-hydroxybenzamide] | 63.9 ± 1.12 | 58.37 ± 1.55 |  |
| CCOc1ccc(Nc2nc(N3CCN(c4ccc(C(=O)NO)cc4)CC3)ncc2Cl)cc1 [Compound L8, 4–(4-(5-chloro-4-((4-ethoxyphenyl)amino)pyrimidin-2-yl)piperazin-1-yl)-N-hydroxybenzamide] | 37.1 ± 1.54 | 49.32 ± 0.89 |  |
| COc1cccc(Nc2nc(N3CCN(c4ccc(C(=O)NO)cc4)CC3)ncc2Cl)c1 [Compound L9, 4–(4-(5-chloro-4-((3-methoxyphenyl)amino)pyrimidin-2-yl)piperazin-1-yl)-N-hydroxybenzamide] | 50.8 ± 2.92 | 55.28 ± 0.15 |  |
| O=C(NO)c1ccc(N2CCN(c3ncc(Cl)c(Nc4cccc(Br)c4)n3)CC2)cc1 [Compound L10, 4–(4–(4-((3-bromophenyl)amino)-5-chloropyrimidin-2-yl)piperazin-1-yl)-N-hydroxybenzamide] | 31.6 ± 1.12 | 51.50 ± 2.03 |  |
| O=C(NO)c1ccc(N2CCN(c3ncc(Cl)c(Nc4ccc(Br)cc4)n3)CC2)cc1 [Compound L11, 4–(4–(4-((4-bromophenyl)amino)-5-chloropyrimidin-2-yl)piperazin-1-yl)-N-hydroxybenzamide] | 60.9 ± 0.21 | 59.82 ± 4.01 |  |
| O=C(NO)c1ccc(N2CCN(c3ncc(Cl)c(Nc4cccc(Cl)c4)n3)CC2)cc1 [Compound L12, 4–(4-(5-chloro-4-((3-chlorophenyl)amino)pyrimidin-2-yl)piperazin-1-yl)-N-hydroxybenzamide] | 50.6 ± 1.86 | 32.74 ± 0.38 |  |
| O=C(NO)c1ccc(N2CCN(c3ncc(Cl)c(Nc4ccc(Cl)cc4)n3)CC2)cc1 [Compound L13, 4–(4-(5-chloro-4-((4-chlorophenyl)amino)pyrimidin-2-yl)piperazin-1-yl)-N-hydroxybenzamide] | 54.1 ± 2.34 | 52.44 ± 1.44 |  |
| O=C(NO)c1ccc(N2CCN(c3ncc(Cl)c(Nc4ccc(-c5ccccc5)cc4)n3)CC2)cc1 [Compound L14, 4–(4–(4-([1,1′-biphenyl]-4-ylamino)-5-chloropyrimidin-2-yl)piperazin-1-yl)-N-hydroxybenzamide] | 35.2 ± 1.21 | 46.80 ± 1.07 |  |
| COc1cc(Nc2nc(N3CCN(c4ccc(C(=O)NO)cc4)CC3)ncc2Cl)cc(OC)c1OC [Compound L15, 4–(4-(5-chloro-4-((3,4,5-trimethoxyphenyl)amino)pyrimidin-2-yl)piperazin-1-yl)-N-hydroxybenzamide] | 58.6 ± 2.01 | 58.15 ± 2.02 |  |
| O=C(NO)c1ccc(N2CCN(c3ncc(Cl)c(Nc4cccc(I)c4)n3)CC2)cc1 [Compound L16, 4-(4-(5-chloro-4-((3-iodophenyl)amino)pyrimidin-2-yl)piperazin-1-yl)-N-hydroxybenzamide] | 37.1 ± 1.54 | 46.50 ± 4.74 |  |
| O=C(NO)c1ccc(N2CCN(c3ncc(Cl)c(Nc4ccc(I)cc4)n3)CC2)cc1 [Compound L17, 4-(4-(5-chloro-4-((4-iodophenyl)amino)pyrimidin-2-yl)piperazin-1-yl)-N-hydroxybenzamide] | 56.4 ± 2.16 | 54.51 ± 3.05 |  |
| O=C(NO)c1ccc(N2CCN(c3ncc(Cl)c(Nc4ccc(F)c(Cl)c4)n3)CC2)cc1 [Compound L18, 4-(4-(5-chloro-4-((3-chloro-4-fluorophenyl)amino)pyrimidin-2-yl)piperazin-1-yl)-N-hydroxybenzamide] | 31.3 ± 0.92 | 52.92 ± 2.00 |  |
| CC(C)S(=O)(=O)c1ccccc1Nc1nc(N2CCN(c3ccc(C(=O)NO)cc3)CC2)ncc1Cl [Compound L19, 4-(4-(5-chloro-4-((2-(isopropylsulfonyl)phenyl)amino)pyrimidin-2-yl)piperazin-1-yl)-N-hydroxybenzamide] | 21.3 ± 0.65 | 44.91 ± 4.97 |  |
| COc1ccc(Nc2nc(N3CCN(c4ncc(C(=O)NO)cn4)CC3)ncc2Cl)cc1OC [Compound L21, 2–(4-(5-chloro-4-((3,4-dimethoxyphenyl)amino)pyrimidin-2-yl)piperazin-1-yl)-N-hydroxypyrimidine-5-carboxamide] | 62.6 ± 2.45 | 58.95 ± 0.74 |  |
| O=C(NO)c1cnc(N2CCN(c3ncc(Cl)c(Nc4ccc(-c5ccccc5)cc4)n3)CC2)nc1 [Compound L22, 2–(4-(4-([1,1′-biphenyl]-4-ylamino)-5-chloropyrimidin-2-yl)piperazin-1-yl)-N-hydroxypyrimidine-5-carboxamide] | 37.1 ± 2.11 | 40.93 ± 0.50 |  |
| O=C(CCCCCCC(=O)Nc1ccccc1)NO [SAHA, Vorinostat, reference compound] |  |  | IC50 (MDA-MB-468): 4850 ± 230 nM; IC50 (MDA-MB-231): 3590 ± 240 nM; apoptotic rate of K562 cells (K562 cells [3]; 1 µM): 1.39%; apoptotic rate of K562 cells (K562 cells [3]; 2 µM): 3.36%; apoptotic rate of K562 cells (K562 cells [3]; 4 µM): 19.75% |
